Results taken from publication PMC7059793, “Novel Chemical Scaffolds to Inhibit the Neutral Amino Acid Transporter B^0AT1 (SLC6A19), a Potential Target to Treat Metabolic Diseases” (Frontiers in Pharmacology, 2020).

How the values were obtained:
[1] = molecular target: T1, B^0AT1 (Mus musculus, UniProt Q9D687); assay: Na+-dependent leucine uptake in inverted sections of mouse intestine; conditions: 50 μM inhibitor, 150 μM [14C]leucine
T1 construct: from tissue; host or cells: small intestine of C57/BL6J female mice, inverted 1 cm sections
T1 sequence (Q9D687 whole entry): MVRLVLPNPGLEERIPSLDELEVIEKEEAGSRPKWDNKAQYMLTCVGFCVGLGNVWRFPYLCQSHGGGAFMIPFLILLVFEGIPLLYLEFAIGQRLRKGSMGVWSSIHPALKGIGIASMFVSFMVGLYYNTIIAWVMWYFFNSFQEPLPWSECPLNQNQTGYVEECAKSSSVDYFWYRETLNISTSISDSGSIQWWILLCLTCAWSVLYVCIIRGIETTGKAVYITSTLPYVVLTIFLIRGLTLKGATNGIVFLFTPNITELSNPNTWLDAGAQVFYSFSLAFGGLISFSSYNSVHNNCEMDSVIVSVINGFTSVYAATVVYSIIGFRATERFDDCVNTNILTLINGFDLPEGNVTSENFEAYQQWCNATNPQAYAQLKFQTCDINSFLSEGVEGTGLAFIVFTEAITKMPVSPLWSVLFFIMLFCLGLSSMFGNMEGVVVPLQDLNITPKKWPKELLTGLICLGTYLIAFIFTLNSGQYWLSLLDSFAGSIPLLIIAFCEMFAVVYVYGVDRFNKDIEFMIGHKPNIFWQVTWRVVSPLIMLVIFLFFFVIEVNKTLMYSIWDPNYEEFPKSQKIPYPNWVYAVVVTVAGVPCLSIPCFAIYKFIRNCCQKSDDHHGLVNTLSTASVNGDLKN
T1 sequence (Q8R0I0 18-805 partner): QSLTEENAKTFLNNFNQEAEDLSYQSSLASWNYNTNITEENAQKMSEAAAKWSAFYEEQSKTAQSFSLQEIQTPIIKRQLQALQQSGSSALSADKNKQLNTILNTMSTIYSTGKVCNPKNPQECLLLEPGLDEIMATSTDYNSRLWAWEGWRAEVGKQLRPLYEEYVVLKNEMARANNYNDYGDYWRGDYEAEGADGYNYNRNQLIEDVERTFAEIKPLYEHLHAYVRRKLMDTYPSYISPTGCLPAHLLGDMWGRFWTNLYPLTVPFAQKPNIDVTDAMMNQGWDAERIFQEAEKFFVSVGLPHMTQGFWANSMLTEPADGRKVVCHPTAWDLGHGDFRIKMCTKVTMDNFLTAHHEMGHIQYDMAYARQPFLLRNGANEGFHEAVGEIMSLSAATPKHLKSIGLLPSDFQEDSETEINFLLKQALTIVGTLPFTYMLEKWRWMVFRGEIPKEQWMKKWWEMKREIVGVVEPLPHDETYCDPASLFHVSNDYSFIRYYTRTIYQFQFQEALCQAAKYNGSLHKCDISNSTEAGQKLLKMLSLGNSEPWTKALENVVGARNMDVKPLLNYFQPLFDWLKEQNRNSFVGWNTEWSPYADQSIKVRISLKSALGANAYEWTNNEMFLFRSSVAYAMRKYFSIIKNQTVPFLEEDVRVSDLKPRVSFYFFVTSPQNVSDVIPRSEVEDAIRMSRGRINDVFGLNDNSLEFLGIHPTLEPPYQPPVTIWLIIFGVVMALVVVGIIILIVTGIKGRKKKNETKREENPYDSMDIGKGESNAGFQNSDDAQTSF
Excerpt: For uptake assays with inverted sections of mouse small intestine, 5–7 months old C57/BL6J female mice were sacrificed by cervical dislocation (Animal ethics protocol A2016/41, Australian National University). The small intestine was removed and the intestinal lumen was rinsed with ice-cold 0.9% NaCl. Subsequently, the small intestine was inverted on a metal rod to expose the mucosa. The inverted intestine was then cut into 1 cm pieces and fitted onto enzyme spatulas, which were immersed in HBSS pH 7.5 supplemented with 1 mM glutamine and protease inhibitor (Roche Complete). After washing twice in modified HBSS pH 7.5 (containing 10% NaCl + 90% NMDG-Cl for Na^+-dependent uptake and 100% NMDG-Cl for Na^+-independent uptake, both buffers supplemented with 1 mM glutamine) to remove residual compounds, the segments were pre-incubated in the same buffer in the presence of 50 µM of transport inhibitor and protease inhibitors for 15 min. At the end of the pre-incubation, the segments were transferred for 30 s into uptake buffer at 37°C (HBSS pH 7.5 supplemented with 150 μM [^14C]leucine and 50 µM transport inhibitor). For Na^+-dependent uptake regular HBSS was used, for Na^+-independent uptake NaCl was replaced by NMDG-Cl. Subsequently, the segments were rinsed three times in ice-cold HBSS pH 7.5 and lysed in 400 µl of 10% SDS. After 2–3 h, the lysed tissues were analyzed by scintillation counting.
To test whether the novel B^0AT1 inhibitors block the transporter in a more physiological environment, we studied leucine uptake in inverted sections of mouse intestine ( Figure 6C ). We established previously that Na^+-dependent leucine uptake (blue bars) in this system is mediated by B^0AT1 ([Broer et al., 2011]). In addition leucine uptake has a Na^+-independent transport component (salmon coloured bars), which is most likely mediated by rbat/b^0,+AT. Because of variability between animals, all data were normalized to uninhibited controls from the same animal.

[2] = molecular target: T2, ASCT2 (SLC1A5) (Homo sapiens, UniProt Q15758); assay: Na+-dependent [14C]glutamine uptake in 143B cells; type: cell-based; conditions: inhibitor at 10 μM and 50 μM, 100 μM [14C]glutamine
T2 construct: endogenous in cells; host or cells: 143B TK- cells (human osteosarcoma)
T2 sequence (Q15758 1-541): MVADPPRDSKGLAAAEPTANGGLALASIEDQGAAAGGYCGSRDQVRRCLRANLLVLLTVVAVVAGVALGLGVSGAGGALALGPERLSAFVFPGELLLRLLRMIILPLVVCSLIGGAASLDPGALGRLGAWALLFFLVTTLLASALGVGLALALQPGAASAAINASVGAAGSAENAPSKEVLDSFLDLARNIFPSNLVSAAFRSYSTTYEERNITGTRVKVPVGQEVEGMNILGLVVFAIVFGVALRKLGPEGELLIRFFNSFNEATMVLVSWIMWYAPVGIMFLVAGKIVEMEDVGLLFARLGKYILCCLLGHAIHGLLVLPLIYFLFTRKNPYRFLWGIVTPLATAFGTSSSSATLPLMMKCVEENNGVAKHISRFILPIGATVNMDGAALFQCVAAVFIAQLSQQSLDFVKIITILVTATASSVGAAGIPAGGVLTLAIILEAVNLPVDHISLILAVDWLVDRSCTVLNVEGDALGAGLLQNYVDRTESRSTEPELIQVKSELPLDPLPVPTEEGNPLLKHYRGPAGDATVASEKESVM
Protocol: CHO-BC cells with passage numbers from 3 to 10 were used in radio-labelled uptake assays. Before the assay, the cells were seeded out in 35 mm dishes (Corning) and maintained for 48–72 h until reaching 80–90% confluence. To initiate transport, the culture medium was removed and the cells washed three times with HBSS + G. Subsequently, cells were incubated with HBSS + G, radiolabelled substrates (150 μM L-[U-^14C]leucine or 150 μM L-[U-^14C]isoleucine) and inhibitors as indicated in the figures or table in a 37°C water bath for 6 min. To terminate transport, cells were washed three times with ice-cold HBSS pH 7.5. For measuring sodium-independent uptake, NaCl in Hank’s buffer was replaced by NMDG-Cl. Cells were then harvested by homogenizing with 500 µl of 0.1 M HCl. An aliquot of 400 µl was used for scintillation counting and the remainder for protein quantification. To investigate inhibition of ASCT2, uptake of 100 μM [^14C]glutamine was measured in 143B cells in the absence and presence of inhibitor (at 10 μM and 50 μM). To measure inhibition of LAT1, uptake of [^14C]leucine was measured in HBSS + G in which NaCl was replaced by NMDG-Cl in 143B cells in the absence and presence of inhibitor (at 10 μM and 50 μM).
To investigate the specificity of the compounds further, we tested them in human 143B osteosarcoma cells, which we have extensively characterised previously and used for pharmacological analysis ([Broer et al., 2018]). Na^+-dependent glutamine transport in 143B cells is largely mediated by ASCT2 (SLC1A5). Na^+-independent transport of leucine, by contrast, is mediated entirely by LAT1.

| Inhibition of Na+-dependent leucine uptake (B^0AT1) ex vivo [1] | Inhibition of Na+-dependent glutamine uptake (ASCT2) [2] | SMILES |
| --- | --- | --- |
| more potent | failed to inhibit | Cc1cc(C(=O)Nc2ccc(Cl)cc2C(F)(F)F)no1 [CB3] |
| limited capacity to inhibit B^0AT1 | failed to inhibit | Cc1cc(OCC(=O)NC(C)C)cc(C)c1Cl [Compound E4] |
| more potent | failed to inhibit | COc1ccccc1Nc1nc2ccccc2s1 [Compound E18] |
